Test results reported in the NIST ThermoML archive (doi:10.1021/je030147g).

Columns and labels:
[1] = refractive index (Na D-line) (dimensionless); xn = mol fraction of the nth substance listed; conditions: 101.33 kPa, Liquid
[2] = xn = mol fraction of the nth substance listed; conditions: 101.33 kPa, Liquid

CCCCN(CCCC)CCCC [tributylamine] + c1ccncc1
Conditions | mass density, 298.15 K [kg/m3] | mass density, 303.15 K [kg/m3] | mass density, 308.15 K [kg/m3] | refractive index, 298.15 K | refractive index, 303.15 K | refractive index, 308.15 K | speed of sound, 298.15 K [m/s] | viscosity, 298.15 K [mPa·s] | viscosity, 303.15 K [mPa·s] | viscosity, 308.15 K [mPa·s]
[1], x1 = 0.0977 | – | – | – | 1.4866 | 1.483 | 1.4795 | – | – | – | –
[1], x1 = 0.1951 | – | – | – | 1.4708 | 1.4685 | 1.4662 | – | – | – | –
[1], x1 = 0.2949 | – | – | – | 1.4606 | 1.4574 | 1.4542 | – | – | – | –
[1], x1 = 0.3938 | – | – | – | 1.4513 | 1.4491 | 1.447 | – | – | – | –
[1], x1 = 0.4898 | – | – | – | 1.4464 | 1.4428 | 1.4392 | – | – | – | –
[1], x1 = 0.5884 | – | – | – | 1.4403 | 1.4376 | 1.4348 | – | – | – | –
[1], x1 = 0.6899 | – | – | – | 1.4359 | 1.4335 | 1.4311 | – | – | – | –
[1], x1 = 0.7846 | – | – | – | 1.4333 | 1.43 | 1.4268 | – | – | – | –
[1], x1 = 0.8869 | – | – | – | 1.4303 | 1.4277 | 1.4252 | – | – | – | –
[1], x1 = 1 | – | – | – | 1.4276 | 1.4255 | 1.4228 | – | – | – | –
[2], x1 = 0.0977 | 927.2 | 922.3 | 917.4 | – | – | – | 1363 | 0.895 | 0.833 | 0.771
[2], x1 = 0.1951 | 890.5 | 885.6 | 880.7 | – | – | – | 1333 | 0.914 | 0.849 | 0.783
[2], x1 = 0.2949 | 862.6 | 858 | 853.3 | – | – | – | 1308 | 0.941 | 0.872 | 0.804
[2], x1 = 0.3938 | 841.3 | 836.8 | 832.2 | – | – | – | 1290 | 0.971 | 0.898 | 0.825
[2], x1 = 0.4898 | 824.7 | 820.3 | 815.9 | – | – | – | 1282 | 1.002 | 0.925 | 0.848
[2], x1 = 0.5884 | 810.8 | 806.5 | 802.1 | – | – | – | 1278 | 1.038 | 0.957 | 0.876
[2], x1 = 0.6899 | 799 | 794.7 | 790.5 | – | – | – | 1275 | 1.077 | 0.993 | 0.909
[2], x1 = 0.7846 | 789.9 | 785.7 | 781.6 | – | – | – | 1271 | 1.122 | 1.031 | 0.94
[2], x1 = 0.8869 | 781.6 | 777.5 | 773.3 | – | – | – | 1266 | 1.175 | 1.077 | 0.979
[2], x1 = 1 | 773.9 | 769.2 | 765.7 | – | – | – | 1262 | 1.239 | 1.124 | 1.028

ClC=C(Cl)Cl [trichloroethene] + CCCCN(CCCC)CCCC
Conditions | mass density, 298.15 K [kg/m3] | mass density, 303.15 K [kg/m3] | mass density, 308.15 K [kg/m3] | refractive index, 298.15 K | refractive index, 303.15 K | refractive index, 308.15 K | speed of sound, 298.15 K [m/s] | viscosity, 298.15 K [mPa·s] | viscosity, 303.15 K [mPa·s] | viscosity, 308.15 K [mPa·s]
[1], x2 = 0 | – | – | – | 1.4752 | 1.4722 | 1.469 | – | – | – | –
[1], x2 = 0.0996 | – | – | – | 1.4632 | 1.4604 | 1.4576 | – | – | – | –
[1], x2 = 0.1953 | – | – | – | 1.4563 | 1.453 | 1.4495 | – | – | – | –
[1], x2 = 0.2913 | – | – | – | 1.4502 | 1.4469 | 1.4436 | – | – | – | –
[1], x2 = 0.3902 | – | – | – | 1.4448 | 1.4417 | 1.4386 | – | – | – | –
[1], x2 = 0.4875 | – | – | – | 1.4402 | 1.4377 | 1.4352 | – | – | – | –
[1], x2 = 0.5906 | – | – | – | 1.437 | 1.4343 | 1.4317 | – | – | – | –
[1], x2 = 0.6843 | – | – | – | 1.4346 | 1.4315 | 1.4284 | – | – | – | –
[1], x2 = 0.7846 | – | – | – | 1.4318 | 1.4295 | 1.427 | – | – | – | –
[1], x2 = 0.8835 | – | – | – | 1.4298 | 1.4272 | 1.4246 | – | – | – | –
[2], x2 = 0 | 1456.7 | 1447.1 | 1439.5 | – | – | – | 1028 | 0.595 | 0.571 | 0.549
[2], x2 = 0.0996 | 1299.3 | 1291.8 | 1284.4 | – | – | – | 1054 | 0.652 | 0.622 | 0.592
[2], x2 = 0.1953 | 1186.7 | 1180.1 | 1173.3 | – | – | – | 1084 | 0.713 | 0.675 | 0.637
[2], x2 = 0.2913 | 1098.3 | 1092.1 | 1086 | – | – | – | 1108 | 0.776 | 0.73 | 0.684
[2], x2 = 0.3902 | 1025.1 | 1019.6 | 1013.9 | – | – | – | 1129 | 0.842 | 0.788 | 0.734
[2], x2 = 0.4875 | 966.3 | 961 | 955.8 | – | – | – | 1151 | 0.909 | 0.846 | 0.783
[2], x2 = 0.5906 | 914.7 | 909.8 | 904.9 | – | – | – | 1170 | 0.978 | 0.907 | 0.835
[2], x2 = 0.6843 | 875 | 870.3 | 865.7 | – | – | – | 1187 | 1.041 | 0.962 | 0.882
[2], x2 = 0.7846 | 838.1 | 833.7 | 829.1 | – | – | – | 1205 | 1.105 | 1.018 | 0.93
[2], x2 = 0.8835 | 806.5 | 802.2 | 797.8 | – | – | – | 1227 | 1.167 | 1.071 | 0.976

CCN(CC)CC [triethylamine] + CCCCN(CCCC)CCCC
x2 = 0
Conditions | mass density, 298.15 K [kg/m3] | mass density, 303.15 K [kg/m3] | mass density, 308.15 K [kg/m3] | refractive index, 298.15 K | refractive index, 303.15 K | refractive index, 308.15 K | speed of sound, 298.15 K [m/s] | viscosity, 298.15 K [mPa·s] | viscosity, 303.15 K [mPa·s] | viscosity, 308.15 K [mPa·s]
[1] | – | – | – | 1.3992 | 1.3958 | 1.3929 | – | – | – | –
[2] | 723.3 | 718.6 | 713.7 | – | – | – | 1123 | 0.367 | 0.349 | 0.332
